PubChem BioAssay AID1919010 (Molecular Pharmacology Branch, DTP, NCI, 2023)
Where “and” joins values, the source holds several entries; their conditions need not be identical. Equal values may be shown once. Each block holds one molecule with its values, some of them ahead of it.

System: Hs578T complex spheroid growth, percent test/control
Assay: Anticancer human tumor Hs578T cell line growth inhibition [AhR];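 also: luminescent viability signal as a proxy for spheroid growth; spheroids exposed to agents for one week after three days of growth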
Details: for viability, T/C: stronger effect = lower value
Text: Multicellular complex tumor spheroid response to aryl hydrocarbon receptor antagonists in combination with a variety of drugs and investigational agents in selected tumor cell lines
The current study was undertaken to assess response to aryl hydrocarbon receptor antagonists in combination with standard-of-care drugs and investigational agents in solid tumor complex spheroid models. Complex spheroids include a stromal component modeled by human endothelial cells (HUVEC) and fibroblasts modeled by human mesenchymal stem cells (MSCs). The concentration ranges selected for each drug and investigational agent were based upon clinically achievable concentrations if the clinical Cmax of the agent was known.
Compounds. The drugs and investigational agents: BAY 2416964 (NSC825713), GNF351 (NSC835774), CH-223191 (NSC835775), CPI-455 (NSC825282), aza-TdCyd (NSC777586), decitabine (NSC127716), belinostat (NSC758774), entinostat (NSC756642), pevonedistat (NSC761192), tazemetostat (NSC777109), talazoparib (NSC765396), olaparib (NSC753686), selinexor (NSC780203), nedisertib (M3814, NSC802822), bortezomib (NSC756655), venetoclax (NSC766270), doxorubicin (NSC123127), elimusertib (BAY189344, NSC800525), ceralasertib (AZD6738, NSC777638), TAK-243 (NSC785004), alisertib (NSC759677), etoposide (NSC141540), topotecan (NSC609699), eribulin (NSC707389), gemcitabine (NSC613327), carboplatin (NSC241240), cisplatin (NSC119875), and SN-38 (NSC673596) were obtained from the National Cancer Institute (NCI) Developmental Therapeutics Program Chemical Repository (32). The FDA-approved anticancer drug set is available from the Developmental Therapeutics Program at https://dtp.cancer.gov/organization/dscb/obtaining/available plates.htm. […] The stock solutions were prepared in dimethyl sulfoxide (DMSO, Sigma-Aldrich, St. Louis, MO, cat. D2650), except for the platinum compounds which were prepared in saline (Quality Biological, Gaithersburg, MD, cat. 114-055-101), at 800-fold the tested concentration and stored at -70 degrees C prior to their use. All drugs and investigational agents were tested over a range starting from a high concentration at or near the clinical Cmax and decreasing in half-log increments. If the clinical Cmax for an agent had not been determined, the highest concentration tested was 10 microM (Table 1).
Cell Culture. All cells were maintained in an incubator at 37 degrees C and 5% CO2 with 95% humidity. The PDC lines were cultured according to standard operating procedures established by the NCI PDMR (https://pdmr.cancer.gov). Briefly, all PDCs were thawed and cultured in Matrigel-coated flasks prepared with a working solution of 1X Ham's F-12 nutrient mix, without supplementation (Invitrogen, Waltham, MA, cat. 11765054), 100 U/mL penicillin-streptomycin (Invitrogen, cat. 15140122), and 2.5% Matrigel (Corning Inc., Corning, NY, cat. 354248) for the first three passages. All PDCs were cultured in complete DMEM/F-12 media containing advanced DMEM/F-12 (Invitrogen, cat. 12634028), 4.9% defined fetal bovine serum, heat inactivated (HyClone Laboratories Inc., Logan, UT, cat. SH30070.03HI), 389 ng/mL hydrocortisone (Sigma-Aldrich, cat. H4001), 9.7 ng/mL human EGF recombinant protein (Invitrogen, cat. PHG0313), 23.4 microg/mL adenine (Sigma-Aldrich, cat. A2786), 97.3 U/mL penicillin-streptomycin (Invitrogen, cat. 15140122), 1.9 mM L-glutamine (Invitrogen, cat. 25030081), and 9.7 microM Y-27632 dihydrochloride (Tocris Bioscience, Bristol, United Kingdom, cat. 1254). The PDCs were cultured in complete DMEM/F12 media without 10 microM Y-27632 dihydrochloride for at least two passages prior to the screen. The established cell lines NCI-H1341 and […] were cultured in DMEM/F-12, HEPES (Invitrogen, cat. 11330032), 5% defined fetal bovine serum (HyClone Laboratories Inc., cat. SH30070.03), ITS premix universal culture supplement [insulin (5 microg/mL), transferrin (5 microg/mL), and selenious acid (5 ng/mL)] […]

[1] = curve of first compound, second compound 0.1 µM
[2] = curve of first compound, second compound 0.316 µM
[3] = curve of first compound, second compound 1 µM
[4] = curve of first compound, second compound 3.16 µM
[5] = curve of first compound, second compound 10 µM
[6] = second compound 0.1 µM, first compound 0.0316 µM
[7] = second compound 0.1 µM, first compound 0.1 µM
[8] = second compound 0.1 µM, first compound 0.316 µM
[9] = second compound 0.1 µM, first compound 1 µM
[10] = second compound 0.1 µM, first compound 3.16 µM
[11] = second compound 0.1 µM, first compound 10 µM
[12] = second compound 0.316 µM, first compound 0.0316 µM
[13] = second compound 0.316 µM, first compound 0.1 µM
[14] = second compound 0.316 µM, first compound 0.316 µM
[15] = second compound 0.316 µM, first compound 1 µM
[16] = second compound 0.316 µM, first compound 3.16 µM
[17] = second compound 0.316 µM, first compound 10 µM
[18] = second compound 1 µM, first compound 0.0316 µM
[19] = second compound 1 µM, first compound 0.1 µM
[20] = second compound 1 µM, first compound 0.316 µM
[21] = second compound 1 µM, first compound 1 µM
[22] = second compound 1 µM, first compound 3.16 µM
[23] = second compound 1 µM, first compound 10 µM
[24] = second compound 3.16 µM, first compound 0.0316 µM
[25] = second compound 3.16 µM, first compound 0.1 µM
[26] = second compound 3.16 µM, first compound 0.316 µM
[27] = second compound 3.16 µM, first compound 1 µM
[28] = second compound 3.16 µM, first compound 3.16 µM
[29] = second compound 3.16 µM, first compound 10 µM
[30] = second compound 10 µM, first compound 0.0316 µM
[31] = second compound 10 µM, first compound 0.1 µM
[32] = second compound 10 µM, first compound 0.316 µM
[33] = second compound 10 µM, first compound 1 µM
[34] = second compound 10 µM, first compound 3.16 µM
[35] = second compound 10 µM, first compound 10 µM

- IC50 [1]: 6120 nM
- IC50 [2]: 6760 nM
- IC50 [3]: 7910 nM
- IC50 [4]: > 10000 nM
- IC50 [5]: 5670 nM
Compound: COc1cc(Nc2ncc3c(n2)-c2ccc(Cl)cc2C(c2c(F)cccc2OC)=NC3)ccc1C(=O)O + Cc1ccccc1N=Nc1ccc(NC(=O)c2ccnn2C)c(C)c1
- viability, T/C [6]: 88.2%
- viability, T/C [7]: 91.4%
- viability, T/C [8]: 78%
- viability, T/C [9]: 77.5%
- viability, T/C [10]: 71.9%
- viability, T/C [11]: 35.4%
- viability, T/C [12]: 85%
- viability, T/C [13]: 81.7%
- viability, T/C [14]: 91.8%
- viability, T/C [15]: 79.4%
- viability, T/C [16]: 67.9%
- viability, T/C [17]: 40.9%
- viability, T/C [18]: 86%
- viability, T/C [19]: 75%
- viability, T/C [20]: 92.9%
- viability, T/C [21]: 82.3%
- viability, T/C [22]: 73.2%
- viability, T/C [23]: 44%
- viability, T/C [24]: 71.5%
- viability, T/C [25]: 83.1%
- viability, T/C [26]: 85.1%
- viability, T/C [27]: 73.8%
- viability, T/C [28]: 66.7%
- viability, T/C [29]: 50.1%
- viability, T/C [30]: 68.4%
- viability, T/C [31]: 64.2%
- viability, T/C [32]: 68.3%
- viability, T/C [33]: 63.9%
- viability, T/C [34]: 62.5%
- viability, T/C [35]: 38.2%

- IC50 [1]: > 10000 nM
- IC50 [2]: > 10000 nM
- IC50 [3]: > 10000 nM
- IC50 [4]: > 10000 nM
- IC50 [5]: > 10000 nM
Compound: COc1cc(Nc2ncc3c(n2)-c2ccc(Cl)cc2C(c2c(F)cccc2OC)=NC3)ccc1C(=O)O + CC(CO)NC(=O)c1cc(-c2ccc(Cl)cc2)nn(-c2cnn(C)c2)c1=O
- viability, T/C [6]: 99.8%
- viability, T/C [7]: 92.3%
- viability, T/C [8]: 104%
- viability, T/C [9]: 99.1%
- viability, T/C [10]: 93.3%
- viability, T/C [11]: 59.6%
- viability, T/C [12]: 94.6%
- viability, T/C [13]: 96%
- viability, T/C [14]: 100%
- viability, T/C [15]: 93.4%
- viability, T/C [16]: 84.4%
- viability, T/C [17]: 51.8%
- viability, T/C [18]: 102%
- viability, T/C [19]: 102%
- viability, T/C [20]: 114%
- viability, T/C [21]: 99%
- viability, T/C [22]: 85.3%
- viability, T/C [23]: 68.6%
- viability, T/C [24]: 95.5%
- viability, T/C [25]: 91.6%
- viability, T/C [26]: 101%
- viability, T/C [27]: 102%
- viability, T/C [28]: 84.7%
- viability, T/C [29]: 67.3%
- viability, T/C [30]: 84.9%
- viability, T/C [31]: 84%
- viability, T/C [32]: 93.6%
- viability, T/C [33]: 97.8%
- viability, T/C [34]: 83.5%
- viability, T/C [35]: 72.3%

- IC50 [1]: 5.01 nM
- IC50 [2]: 4.98 nM
- IC50 [3]: 5.47 nM
- IC50 [4]: 4.53 nM
- IC50 [5]: 3.14 nM
Compound: CC(C)CC(NC(=O)C(Cc1ccccc1)NC(=O)c1cnccn1)B(O)O (centres undefined) + Cc1ccccc1N=Nc1ccc(NC(=O)c2ccnn2C)c(C)c1
- viability, T/C (second compound 0.1 µM, first compound 0.000949 µM): 107%
- viability, T/C (second compound 0.1 µM, first compound 0.003 µM): 80.8%
- viability, T/C (second compound 0.1 µM, first compound 0.00949 µM): 11.7%
- viability, T/C (second compound 0.1 µM, first compound 0.03 µM): 0.3%
- viability, T/C (second compound 0.1 µM, first compound 0.0949 µM): 0.81%
- viability, T/C (second compound 0.1 µM, first compound 0.3 µM): 0.36%
- viability, T/C (second compound 0.316 µM, first compound 0.000949 µM): 94.6%
- viability, T/C (second compound 0.316 µM, first compound 0.003 µM): 78.1%
- viability, T/C (second compound 0.316 µM, first compound 0.00949 µM): 14.1%
- viability, T/C (second compound 0.316 µM, first compound 0.03 µM): 0.31%
- viability, T/C (second compound 0.316 µM, first compound 0.0949 µM): 0.28%
- viability, T/C (second compound 0.316 µM, first compound 0.3 µM): 0.33%
- viability, T/C (second compound 1 µM, first compound 0.000949 µM): 98.2%
- viability, T/C (second compound 1 µM, first compound 0.003 µM): 86.1%
- viability, T/C (second compound 1 µM, first compound 0.00949 µM): 16.9%
- viability, T/C (second compound 1 µM, first compound 0.03 µM): 0.65%
- viability, T/C (second compound 1 µM, first compound 0.0949 µM): 0.44%
- viability, T/C (second compound 1 µM, first compound 0.3 µM): 1.31%
- viability, T/C (second compound 3.16 µM, first compound 0.000949 µM): 88.6%
- viability, T/C (second compound 3.16 µM, first compound 0.003 µM): 68.7%
- viability, T/C (second compound 3.16 µM, first compound 0.00949 µM): 16.6%
- viability, T/C (second compound 3.16 µM, first compound 0.03 µM): 0.34%
- viability, T/C (second compound 3.16 µM, first compound 0.0949 µM): 0.39%
- viability, T/C (second compound 3.16 µM, first compound 0.3 µM): 0.32%
- viability, T/C (second compound 10 µM, first compound 0.000949 µM): 62.1%
- viability, T/C (second compound 10 µM, first compound 0.003 µM): 51.2%
- viability, T/C (second compound 10 µM, first compound 0.00949 µM): 16.6%
- viability, T/C (second compound 10 µM, first compound 0.03 µM): 0.45%
- viability, T/C (second compound 10 µM, first compound 0.0949 µM): 0.83%
- viability, T/C (second compound 10 µM, first compound 0.3 µM): 0.53%

- IC50 (curve of compound): > 1000 nM
Compound: Nc1ncn(C2CC(O)C(CO)O2)c(=O)n1 (centres undefined)
- viability, T/C (compound 0.00316 µM): 107% and 102% and 97.1%
- viability, T/C (compound 0.01 µM): 104% (2×) and 97.5%
- viability, T/C (compound 0.0316 µM): 117% and 101% and 103%
- viability, T/C (compound 0.1 µM): 102% and 105% and 98.2%
- viability, T/C (compound 0.316 µM): 101% and 92.1% and 94.3%
- viability, T/C (compound 1 µM): 89.7% and 90.5% and 96.5%

- IC50 (curve of compound): 6.56 nM and 5.49 nM and 4.5 nM
Compound: CC(C)CC(NC(=O)C(Cc1ccccc1)NC(=O)c1cnccn1)B(O)O (centres undefined)
- viability, T/C (compound 0.000949 µM): 105% and 102% and 101%
- viability, T/C (compound 0.003 µM): 94% and 86.9% and 73.4%
- viability, T/C (compound 0.00949 µM): 29.3% and 16.7% and 7.03%
- viability, T/C (compound 0.03 µM): 0.41% and 0.42% and 0.68%
- viability, T/C (compound 0.0949 µM): 0.27% and 0.44% and 1.61%
- viability, T/C (compound 0.3 µM): 0.58% and 0.42% and 0.53%
